Reference: article PMC7355430, “Imunofan—RDKVYR Peptide—Stimulates Skin Cell Proliferation and Promotes Tissue Repair” (Molecules, 2020)
Several values for one entry are separate records, joined by “and”; a condition that tells them apart may be missing. Identical values can stand only once. Peptide text beside a SMILES is read from it.

Tests used:
HaCaT keratinocytes = experiment: Chemotaxis assay, ThinCert inserts; assay type: cell-based, human; details: 0.1 and 1 µg/mL, 24 h, serum-free; n=12 (Figure S7B)
Procedure: The effect of IM on cell chemotaxis was assessed with ThinCert cell culture inserts (8 μm, Greiner Bio-One, Kremsmünster, Austria). Cells were starved overnight in serum-free high-glucose DMEM and then seeded on inserts placed in a 24-well plate, at a density of 100,000 cells, in serum-free medium. Culture medium with appropriate concentrations of IM was then added to the wells of the plate and incubated for 24 h. The cells were stained with 8 μM Calcein-AM (BD Pharmingen), then migratory cells were detached with typsin-EDTA (Sigma-Aldrich, St. Louis, MO, USA). Detached cells were transferred to another plate and read with a fluorescence plate reader at an excitation wavelength of 485 nm and an emission wavelength of 520 nm.

C57BL/6 mice = experiment: Ear pinna injury, ear punch closure; assay type: in vivo, mouse
Procedure: Experiments were performed on 8–12 week-old female BALB/c (24 mice in total) and C57BL/6 mice (36 mice in total). All mice originated from the Centre for Experimental Medicine of the Medical University of Białystok, Poland, and were kept in the animal facility at the Nencki Institute of Experimental Biology throughout the course of the study. After delivery to the Nencki Institute animal facility, mice rested for at least two weeks for acclimatization before starting the experiment. Experiments were approved by the First Local Ethics Committee in Warsaw (permit No. 491/2013 and 542/2018). Animal experimentation was performed in accordance with EU directive 2010/63/EU, and all experiments were undertaken in such a way as to minimize discomfort and the number of animals used in the study.
Mice were placed individually in separate cages, weighed, and randomly divided into two groups within each mouse strain: The treatment group and the control group. Before the study all mice were randomly given numerical equivalents, and all experimenters performing further analysis were not aware of the experimental group and referred solely to those numbers. Similarly, vials containing IM (treatment) or saline (control) were encrypted and assigned to particular mice, so the person performing injections and ear photographs was not aware of mice background. Lastly, the person quantifying each ear hole closure was not aware of the group. Numerical equivalents of each mice were only decrypted at the end of the study. […]
To monitor the progress of wound healing, ears were photographed on the day of the injury (day 0, before and right after pinna injury), and on days 7, 14, 21, 28, 35, and 42. […] Finally, the area of the wound hole was outlined by hand on digitized images as an overlay, and the hole areas in the ears were evaluated using computer-assisted image analysis (ImageJ Software). […] The final number of analyzed ears was 23 per group on day 42. […] The final number of analyzed ears on day 42 was 32 in the control group and 16 in the treatment group.

[1] = tested on: MCF-7 breast cancer cells; experiment: MTT proliferation test; assay type: cell-based; details: 24, 48 or 72 h, RPMI-1640 with 10 % FBS; Mann Whitney U-test (Figure S12)
Procedure: (§1) Cancer cell prolifertion assay. Cell proliferation was determined by the MTT method. MTT test measures enzymatic activity, which is a marker of viable cells. Drop in amount of formazan informs that there is less metabolically active cells as compared with control (taken as 100%); however, it might be caused by cell cycle arrest (stopped or slowed proliferation) and/or cell death (which also may happen after prolonged incubation with tested compounds). T47D or MCF-7 breast cancer cells were cultured in RPMI-1640 supplemented with 10 % fetal bovine serum and 1 % penicillin/streptomycin solution. Cells were seeded, at a density of 2 x 10^3 per well, in a 96-well plate and allowed to attach overnight. The medium was replaced with fresh medium supplemented with desired concentrations of each investigated compound for 24, 48 or 72 h. Before the end of treatment, 25 µL of MTT solution (4 mg per ml-^1) were added to each well. After 3 h of incubation, medium was removed, and formazan crystals were dissolved in 100 µL of DMSO. Absorbance was measured at 570 nm (with reference wavelength 660 nm) in a Victor microplate reader. Data were obtained from at least three independent experiments performed in triplicate.

T47D breast cancer cells = experiment: MTT proliferation test; assay type: cell-based; details: 48 or 72 h, RPMI-1640 with 10 % FBS; Mann Whitney U-test (Figure S11)
Procedure: as §1

CC(C)[C@H](NC(=O)[C@H](CCCCN)NC(=O)[C@H](CC(=O)O)NC(=O)[C@@H](N)CCCNC(=N)N)C(=O)N[C@@H](Cc1ccc(O)cc1)C(=O)N[C@@H](CCCNC(=N)N)C(=O)O [IM, H-Arg-Asp-Lys-Val-Tyr-Arg-OH] (H-RDKVYR-OH)
inhibition of chemotaxis with respect to the control (HaCaT keratinocytes): 10–20%
mean ear hole area (C57BL/6 mice; C57BL/6, day 42 post-injury, 2 mm punch, s.c. 5.0 µg/g, 10 injections, mean ± SD, saline control 3.10 ± 0.74): 1.67 ± 0.45 mm^2
ear hole closure (C57BL/6 mice; C57BL/6, day 42 post-injury, s.c. 5.0 µg/g, 10 injections, mean ± SD, saline control 8.0% ± 36.8%): 43.6% ± 13.9% and 44%
tissue repair in comparison to control (C57BL/6 mice; C57BL/6, ear pinna injury, as summarised in the abstract): 36%
difference in proliferation from control (MTT) [1]: not statistically significant
difference in proliferation from control (MTT) (T47D breast cancer cells): not statistically significant
